Assay results taken from PubChem BioAssay (NCI).
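Five concentrations, 48 hours, 96-well plates. The concentration for full growth arrest is given as TGI.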

Assays:
Test in all cases: NCI-60 cell line screen, 48 h
[1] = tested on: SK-MEL-2 melanoma
[2] = tested on: ACHN renal
[3] = tested on: MDA-MB-231 breast
[4] = tested on: UACC-257 melanoma
[5] = tested on: SK-MEL-28 melanoma
[6] = tested on: NCI/ADR-RES ovarian
[7] = tested on: U251 CNS
[8] = tested on: SR leukemia
[9] = tested on: NCI-H226 lung
[10] = tested on: OVCAR-3 ovarian
[11] = tested on: HCT-15 colon
[12] = tested on: HS 578T breast
[13] = tested on: HOP-62 NSCLC
[14] = tested on: COLO 205 colon
[15] = tested on: SF-295 CNS
[16] = tested on: HCC-2998 colon
[17] = tested on: OVCAR-8 ovarian
[18] = tested on: RPMI-8226 leukemia
[19] = tested on: OVCAR-4 ovarian
[20] = tested on: NCI-H522 lung

## NCCCN(CCCN)CCN(CCN(CCCN)CCCN)CCN(CCCN)CCCN
[1]
  TGI: > 100 µM
[2]
  TGI: > 100 µM
[3]
  TGI: > 100 µM
[4]
  TGI: > 100 µM
[5]
  TGI: > 100 µM
[6]
  TGI: > 100 µM
[7]
  TGI: > 100 µM
[8]
  TGI: > 100 µM
[9]
  TGI: > 100 µM
[10]
  TGI: > 100 µM
[11]
  TGI: > 100 µM
[12]
  TGI: 58.5 µM
[13]
  TGI: > 100 µM
[14]
  TGI: > 100 µM
[15]
  TGI: > 100 µM
[16]
  TGI: > 100 µM
[17]
  TGI: > 100 µM
[18]
  TGI: > 100 µM
[19]
  TGI: > 100 µM
[20]
  TGI: 63.3 µM
